Experimental data reported in publication PMC6497007, “Development, Validation of LC-MS/MS Method and Determination of Pharmacokinetic Parameters of the Stroke Neuroprotectant Neurounina-1 in Beagle Dog Plasma After Intravenous Administration” (Frontiers in Pharmacology, 2019).
Read-outs that look alike come from different tables or passages of the source.

Key:
[1] = Pharmacokinetics in plasma after a single intravenous administration to beagle dogs (LC-MS/MS, non-compartmental analysis); format: in vivo, beagle dog; details: for C0 / Vd / clearance / k el / half-life: both sexes, beagle, dog, plasma, iv; for C0 / AUC0-inf / AUC0-tlast / AUC%extrap: beagle dog plasma; for k el: read-out: Ke (converted)
Experimental: Aliquots (0.05 mL) of each plasma sample were added to glass tubes followed by 0.05 mL of IS (ropivacaine 100 ng/mL). The tubes were vortexed for 5 s and 0.1 mL of acetonitrile were added. The samples were vortexed for 40 s, again, and then centrifuged at 2000 ×g for 5 min. The obtained supernatants were transferred to microvials for analysis.
Neuronina-1 was separated in a 150 mm × 4.6 mm x 5 μm Phenomenex C18Luna reversed phase analytical column (Phenomenex Inc., CA, United States). The temperature of the column was maintained constant at 65°C. The mobile phase used was composed by methanol/acetonitrile/water (50/40/10, v/v/v) + 0.1% of formic acid + 1 M ammonium formate at a flow rate of 1 mL/min (split 1:3). The auto-sampler was maintained at room temperature.
The mass spectrometer (Quattro Micro – Micromass, Waters, United Kingdom) equipped with an electrospray source in the ESI positive polarity mode (ES+) was configured for multiple reaction monitoring (MRM) to monitor the transitions 365.3 > 83.9 and 275.2 > 126.0, for neurounina-1 and ropivacaine, respectively. […] To optimize all MS parameters, a standard solution of the analyte and IS was infused into the mass spectrometer. The optimized values of ion spray voltage, collision energy, and cone voltage were, respectively 2800 (V), 20 (eV), and 20 (V) for neurounina-1 and 2800 (V), 15 (eV), and 15 (V) for ropivacaine. Data acquisition and analysis were performed using the software Masslynx 4.0 (Waters Corporation, Milford, MA, United States).
(§1) Beagle dogs (n = 5) of both sexes, aged between 2 and 3 years old, weighing between 10 and 14 kg were provided by Camilo Castelo Branco University, Brazil. The dogs were housed in Domingos Alves Veterinary Hospital in individual rooms and fed with a standard canine food. They had free access to water. The dogs underwent rigorous veterinary control and were all considered healthy based on physical examination and laboratory analysis performed before initiation and after completion of each occasion of the study. At the end of the study, the animals were returned to their habitat. This study was carried out in accordance with the recommendations of the general ethical guidelines established by the Brazilian Society for Laboratory Animal Science (SBCAL). The protocol was approved by the Committee for Ethics in Animal Use – State University of Campinas (CEUA/UNICAMP, protocol n° 3340-1).
After an overnight (8 h) fasting, a single intravenous dose of 0.1 mg/kg, 0.3 mg/kg, or 1 mg/kg neurounina-1 formulation was administered to beagle dogs, with 7 days washout period between each dose administration. Blood samples (5 mL) from a suitable antecubital vein were collected into heparin-containing tubes before and 0.03, 0.08, 0.17, 0.25, 0.33, 0.5, 1, 2, 3, 4, 6, 8, 12, and 24 h after the administration of each dose. A total of 210 mL of blood was collected during the study. The blood samples treated with sodium heparin were centrifuged at approximately 2000 ×g for 10 min at 4°C and the plasma was stored at -20°C until analysis.
Non-compartmental analysis was used to determine the pharmacokinetic parameters of neurounina-1 after the intravenous administration. The concentration at time zero (C0) was estimated by back-extrapolating from the elimination curve. The area under the plasma concentration vs. time curves from zero to the last detectable concentration (AUC0-tlast) were calculated by applying the linear-log trapezoid rule. Extrapolation of these areas to infinity (AUC0-inf) was done by adding the value Clast/ke to the calculated AUC0-tlast (where Clast = the last detectable concentration). Clearance (CL) was calculated by the formula dose/AUC0-inf. Volume of distribution (Vd) was calculated by the formula CL/ke. The WinNonlin software, version 6.4 (Pharsight Corp, Mountain View, CA, United States) was used. Statistical analysis was performed using GraphPad Prism software, version 3.2 (GraphPad Software, San Diego, California, United States).

[2] = Stability tests in beagle dog plasma (QC samples); format: in vitro ADME
Experimental: To assess stability, QC plasma samples (1.5 and 400.0 ng/mL) were subjected to short-term (6 h) incubation at room temperature; four freeze/thaw (-20°C) cycles and 52 h in the autosampler at room temperature. Subsequently, the neurounina-1 concentrations were measured and compared with freshly prepared samples.

beagle dogs = assay: Tolerability in beagle dogs after intravenous administration; format: in vivo, beagle dog; details: single i.v. 0.1, 0.3 and 1 mg/kg
Experimental: as §1
After an overnight (8 h) fasting, a single intravenous dose of 0.1 mg/kg, 0.3 mg/kg, or 1 mg/kg neurounina-1 formulation was administered to beagle dogs, with 7 days washout period between each dose administration. Blood samples (5 mL) from a suitable antecubital vein were collected into heparin-containing tubes before and 0.03, 0.08, 0.17, 0.25, 0.33, 0.5, 1, 2, 3, 4, 6, 8, 12, and 24 h after the administration of each dose. A total of 210 mL of blood was collected during the study. […]

NCX1 and NCX2 = test system: NCX1 and NCX2; parameters: method as in Molinaro et al., 2013; details: ref Molinaro et al., 2013; cited from earlier work
[3] = test system: transient middle cerebral artery occlusion (tMCAO); parameters: method as in Molinaro et al., 2013; details: ref Molinaro et al., 2013, cited from earlier work
[4] = ref Molinaro et al., 2013; cited from earlier work
[5] = 0.1 mg/kg, mean, 0.1 mg/kg single i.v., beagle dog, n = 5
[6] = 0.1 mg/kg, median, 0.1 mg/kg single i.v., beagle dog, n = 5
[7] = 0.3 mg/kg, mean, 0.3 mg/kg single i.v., beagle dog, n = 5
[8] = 0.3 mg/kg, median, 0.3 mg/kg single i.v., beagle dog, n = 5
[9] = 1 mg/kg, mean, 1 mg/kg single i.v., beagle dog, n = 5
[10] = 1 mg/kg, median, 1 mg/kg single i.v., beagle dog, n = 5
[11] = mean, 0.1 mg/kg single i.v., n = 5
[12] = mean, 0.3 mg/kg single i.v., n = 5
[13] = mean, 1 mg/kg single i.v., n = 5
[14] = median, 0.1 mg/kg single i.v., n = 5
[15] = median, 0.3 mg/kg single i.v., n = 5
[16] = median, 1 mg/kg single i.v., n = 5

Question: With O=C1CN=C(c2ccccc2)c2cc([N+](=O)[O-])ccc2N1CN1CCCC1 [Neurounina-1, 7-nitro-5-phenyl-1-(pyrrolidin-1-ylmethyl)-1H-benzo[e][1,4]diazepin-2(3H)-one] as the molecule, how does the C0 ([1]; 0.1 mg/kg, mean, 0.1 mg/kg single i.v., back-extrapolated, n = 5) read?
Answer: 32.5 ng/mL

Question: What about the Vd [1, 5] of the same molecule?
Answer: 130 L

Question: What about the clearance [1, 5] of the same molecule?
Answer: 771 mL/min

Question: And the k el [1, 5]?
Answer: 9.72e-05 s⁻¹

Question: What about the half-life ([1]; 0.1 mg/kg, mean, 0.1 mg/kg single i.v., beagle dog, n = 5, read-out: t1/2 (converted)) of the same molecule?
Answer: 2.14 h

Question: And the C0 ([1]; 0.1 mg/kg, median, 0.1 mg/kg single i.v., n = 5)?
Answer: 30.6 ng/mL

Question: What about the Vd [1, 6] of the same molecule?
Answer: 127 L

Question: And the clearance [1, 6]?
Answer: 795 mL/min

Question: And the k el [1, 6]?
Answer: 0.000106 s⁻¹

Question: What about the half-life ([1]; 0.1 mg/kg, median, 0.1 mg/kg single i.v., beagle dog, n = 5, read-out: t1/2 (converted)) of the same molecule?
Answer: 1.67 h

Question: What about the C0 ([1]; 0.3 mg/kg, mean, 0.3 mg/kg single i.v., back-extrapolated, n = 5) of the same molecule?
Answer: 111 ng/mL

Question: What about the Vd [1, 7] of the same molecule?
Answer: 154 L

Question: What about the clearance [1, 7] of the same molecule?
Answer: 793 mL/min

Question: What about the k el [1, 7] of the same molecule?
Answer: 8.33e-05 s⁻¹

Question: And the half-life ([1]; 0.3 mg/kg, mean, 0.3 mg/kg single i.v., beagle dog, n = 5, read-out: t1/2 (converted))?
Answer: 2.54 h

Question: And the C0 ([1]; 0.3 mg/kg, median, 0.3 mg/kg single i.v., n = 5)?
Answer: 100 ng/mL

Question: And the Vd [1, 8]?
Answer: 103 L

Question: What about the clearance [1, 8] of the same molecule?
Answer: 591 mL/min

Question: What about the k el [1, 8] of the same molecule?
Answer: 8.61e-05 s⁻¹

Question: What about the half-life ([1]; 0.3 mg/kg, median, 0.3 mg/kg single i.v., beagle dog, n = 5, read-out: t1/2 (converted)) of the same molecule?
Answer: 2.16 h

Question: And the C0 ([1]; 1 mg/kg, mean, 1 mg/kg single i.v., back-extrapolated, n = 5)?
Answer: 223 ng/mL

Question: And the Vd [1, 9]?
Answer: 211 L

Question: What about the clearance [1, 9] of the same molecule?
Answer: 1150 mL/min

Question: And the k el [1, 9]?
Answer: 9.17e-05 s⁻¹

Question: And the half-life ([1]; 1 mg/kg, mean, 1 mg/kg single i.v., beagle dog, n = 5, read-out: t1/2 (converted))?
Answer: 2.04 h

Question: And the C0 ([1]; 1 mg/kg, median, 1 mg/kg single i.v., n = 5)?
Answer: 197 ng/mL

Question: And the Vd [1, 10]?
Answer: 224 L

Question: And the clearance [1, 10]?
Answer: 1250 mL/min

Question: What about the k el [1, 10] of the same molecule?
Answer: 8.89e-05 s⁻¹

Question: What about the half-life ([1]; 1 mg/kg, median, 1 mg/kg single i.v., beagle dog, n = 5, read-out: t1/2 (converted)) of the same molecule?
Answer: 1.94 h

Question: What about the half-life ([1]; beagle dog, overall statement, read-out: half-life (converted)) of the same molecule?
Answer: ~2 h

Question: And the AUC0-inf [1, 11]?
Answer: 30.10 ng^∗h/mL

Question: And the AUC0-tlast [1, 11]?
Answer: 26.10 ng^∗h/mL

Question: And the t1/2 ([1]; mean, 0.1 mg/kg single i.v., beagle dog, n = 5, 0.1 mg/kg)?
Answer: 2.02 h

Question: And the AUC0-inf [1, 12]?
Answer: 122.42 ng^∗h/mL

Question: And the AUC0-tlast [1, 12]?
Answer: 115.81 ng^∗h/mL

Question: And the t1/2 ([1]; mean, 0.3 mg/kg single i.v., beagle dog, n = 5, 0.3 mg/kg)?
Answer: 2.36 h

Question: What about the AUC0-inf [1, 13] of the same molecule?
Answer: 263.06 ng^∗h/mL

Question: What about the AUC0-tlast [1, 13] of the same molecule?
Answer: 257.28 ng^∗h/mL

Question: And the t1/2 ([1]; mean, 1 mg/kg single i.v., beagle dog, n = 5, 1 mg/kg)?
Answer: 2.13 h

Question: And the AUC0-inf [1, 14]?
Answer: 26.44 ng^∗h/mL

Question: And the AUC0-tlast [1, 14]?
Answer: 23.00 ng^∗h/mL

Question: What about the AUC%extrap [1, 14] of the same molecule?
Answer: 3.42%

Question: What about the AUC0-inf [1, 15] of the same molecule?
Answer: 133.20 ng^∗h/mL

Question: What about the AUC0-tlast [1, 15] of the same molecule?
Answer: 127.76 ng^∗h/mL

Question: What about the AUC%extrap [1, 15] of the same molecule?
Answer: 4.56%

Question: And the AUC0-inf [1, 16]?
Answer: 184.06 ng^∗h/mL

Question: What about the AUC0-tlast [1, 16] of the same molecule?
Answer: 179.65 ng^∗h/mL

Question: What about the AUC%extrap [1, 16] of the same molecule?
Answer: 4.55%

Question: What about the “Dose linearity of pharmacokinetics” value ([1]; single i.v. doses up to 1.0 mg/kg, beagle dog) of the same molecule?
Answer: Linear pharmacokinetics

Question: What about the “Stability, Accuracy(%)” value ([2]; Freeze/thaw (4cycles, -20°C), 1.5 ng/mL, beagle dog plasma) of the same molecule?
Answer: 92.7%

Question: And the “Stability, Accuracy(%)” value ([2]; Freeze/thaw (4cycles, -20°C), 400 ng/mL, beagle dog plasma)?
Answer: 101.3%

Question: And the “Stability, Accuracy(%)” value ([2]; Post-processing (52 h) in autosampler, 1.5 ng/mL, processed beagle dog plasma)?
Answer: 96.0%

Question: What about the “Stability, Accuracy(%)” value ([2]; Post-processing (52 h) in autosampler, 400 ng/mL, processed beagle dog plasma) of the same molecule?
Answer: 101.8%

Question: And the “Stability, Accuracy(%)” value ([2]; Short-term (6 h) at room temperature, 1.5 ng/mL, beagle dog plasma)?
Answer: 94.7%

Question: And the “Stability, Accuracy(%)” value ([2]; Short-term (6 h) at room temperature, 400 ng/mL, beagle dog plasma)?
Answer: 106.5%

Question: And the “Degradation in stability tests” value ([2]; four freezing and thawing cycles, 6 h at room temperature, 52 h after processing in the self-injector, beagle dog plasma)?
Answer: no significant degradation

Question: What about the “tolerability, behavior” value (beagle dogs) of the same molecule?
Answer: well tolerated

Question: What about the “half maximal effective concentration (EC50)” value (NCX1 and NCX2) of the same molecule?
Answer: in the picomolar to low nanomolar range

Question: And the “time after ischemia induction at which the effect was still notable” value ([3]; 0.003 to 30 μg/kg intraperitoneally, mouse tMCAO)?
Answer: 5 h

Question: And the “most effective dosage in an animal model of stroke” value ([3]; administered 3 h after stroke induction)?
Answer: 0.03 µg/kg

Question: What about the “protection in animal model of stroke” value ([3]; dose of 0.003 μg/Kg, compared with 0.03 μg/Kg) of the same molecule?
Answer: less marked

Question: What about the lipophilicity index [4] of the same molecule?
Answer: high lipophilicity index

Question: What about the toxicity [4] of the same molecule?
Answer: low toxicity
